Measurements: patent US6693085B2, “Macrolide compound JK” (Higeta Shoyu Co., Ltd., priority 2000, dated 2004)
≈ marks a conversion by molar mass, not a printed value. Where two headings read alike, the source gives them in different places.

How the values were obtained:
[1] = tested on: clinically freshly isolated MRSAs; experiment: Anti-MRSA activity (MIC), 11 clinically freshly isolated MRSA strains; type: cell-based, Staphylococcus aureus; details: for MIC: Staphylococcus aureus, MRSA
Procedure: (§1) Antimicrobial activity of JK-1 was determined by measuring the minimum growth inhibition concentration (MIC) as follows.
(§2) MIC values of JK against a variety of microorganisms were determined on a Mueller-Hinton broth containing 0.2% glucose according to the rule of Japanese Society of Chemotherapy (Kouseibussitsu Taiyo (The Essentials of Antibiotics), 4th ed., University of Tokyo Press, 1992).
(§3) JK-1 was dissolved in methanol, and diluted with the above medium, repeating 2-fold dilution starting from 1 mg/ml. Test microorganisms were added to the above medium to give a test solution of 1×10^6 cells/ml. The JK solution (20 μl) and the test solution (180 μl) were dispensed in a 96 well microplate and incubated at 37° C. After 24 hours, either positive or negative growth was confirmed visually, and the MIC value was caluculated.
Among gram-positive bacteria, there was no difference between MIC values, especially, of Staphylococcus aureus and its multi-drug resistant strain MRSA (Table 5) which have become a clinical problem. In this situation, the antimicrobial activity of JK-1 was compared to that of commercially available 3 drugs in 11 strains of clinically freshly isolated MRSAs.

[2] = tested on: Actinomadura pelletieri IFM0903; experiment: Sensitivity of the producing strain against antibiotics; type: cell-based; details: Actinomadura pelletieri IFM0903, strain characterisation
MRSA = experiment: Antimicrobial activity (MIC, broth dilution); type: cell-based, Staphylococcus aureus; details: 24 hours, 37° C.
Procedure: as §1, §2, §3

Asperigillus niger = experiment: Antimicrobial activity (MIC, broth dilution); type: cell-based; details: 24 hours, 37° C.
Procedure: as §1, §2, §3

Bacillus subtilis PCII89 = experiment: Antimicrobial activity (MIC, broth dilution); type: cell-based; details: Bacillus subtilis PCII89, 24 hours, 37° C.
Procedure: as §1, §2, §3

Candida albicans = experiment: Antimicrobial activity (MIC, broth dilution); type: cell-based; details: 24 hours, 37° C.
Procedure: as §1, §2, §3

Corynebacterium xerosis = experiment: Antimicrobial activity (MIC, broth dilution); type: cell-based; details: 24 hours, 37° C.
Procedure: as §1, §2, §3

[3] = tested on: Escherichia coli NIH JC-2; experiment: Antimicrobial activity (MIC, broth dilution); type: cell-based; details: Escherichia coli NIH JC-2, 24 hours, 37° C.
Procedure: as §1, §2, §3

Gordonia bronchialis = experiment: Antimicrobial activity (MIC, broth dilution); type: cell-based; details: 24 hours, 37° C.
Procedure: as §1, §2, §3

Micrococcus luteus = experiment: Antimicrobial activity (MIC, broth dilution); type: cell-based; details: 24 hours, 37° C.
Procedure: as §1, §2, §3

Nocardia asteroides = experiment: Antimicrobial activity (MIC, broth dilution); type: cell-based; details: 24 hours, 37° C.
Procedure: as §1, §2, §3

[4] = tested on: Staphylococcus aureus 209P; experiment: Antimicrobial activity (MIC, broth dilution); type: cell-based; details: 24 hours, 37° C.
Procedure: as §1, §2, §3

gram-positive bacteria = experiment: Antimicrobial activity (MIC), summary for gram-positive bacteria; type: cell-based; details: range over the gram-positive bacteria of Table 5
Procedure: as §1, §2, §3

[5] = tested on: gram-negative bacteria and fungi; experiment: Antimicrobial activity (MIC), summary for gram-negative bacteria and fungi; type: cell-based; details: summary of Table 5
Procedure: as §1, §2, §3

CC1(C)S[C@@H]2[C@H](NC(=O)Cc3ccccc3)C(=O)N2[C@H]1C(=O)O [penicillin-G]
MIC values ([1]; MRSA strain 3666): >100 µg/mL | MIC values ([1]; MRSA strain 3667): >100 µg/mL | MIC values ([1]; MRSA strain 3668): >100 µg/mL | MIC values ([1]; MRSA strain 3669): >100 µg/mL | MIC values ([1]; MRSA strain 3670): >100 µg/mL | MIC values ([1]; MRSA strain 3671): >100 µg/mL | MIC values ([1]; MRSA strain S-1): >100 µg/mL | MIC values ([1]; MRSA strain S-2): >100 µg/mL | MIC values ([1]; MRSA strain S-3): >100 µg/mL | MIC values ([1]; MRSA strain S-4): >100 µg/mL | MIC values ([1]; MRSA strain S-5): >100 µg/mL

O=c1[nH]cc(F)c(=O)[nH]1 [Compound 5-FU, 5-FU]
Sensitivity against Antibiotics [2]: positive

CCCC1C=CC2C=C(C)C(OC3CC(N)C(NC(=O)c4c(O)ccc(Cl)c4C)C(C)O3)CC=CC3C(CC)=CC4C(O)C(O)CC(C)C4C3(C)C(=O)C3=C(O)C2(C1)OC3=O (stereo not shown) [JK-2]
MIC values ([1]; MRSA strain 3666): 0.2 µg/mL (≈ 0.232 µM) | MIC values ([1]; MRSA strain 3667): 0.2 µg/mL (≈ 0.232 µM) | MIC values ([1]; MRSA strain 3668): 0.2 µg/mL (≈ 0.232 µM) | MIC values ([1]; MRSA strain 3669): 0.2 µg/mL (≈ 0.232 µM) | MIC values ([1]; MRSA strain 3670): 0.78 µg/mL (≈ 0.903 µM) | MIC values ([1]; MRSA strain 3671): 0.2 µg/mL (≈ 0.232 µM) | MIC values ([1]; MRSA strain S-1): 0.78 µg/mL (≈ 0.903 µM) | MIC values ([1]; MRSA strain S-2): 0.78 µg/mL (≈ 0.903 µM) | MIC values ([1]; MRSA strain S-3): 0.39 µg/mL (≈ 0.452 µM) | MIC values ([1]; MRSA strain S-4): 0.39 µg/mL (≈ 0.452 µM) | MIC values ([1]; MRSA strain S-5): 0.2 µg/mL (≈ 0.232 µM)

CN[C@H](CC(C)C)C(=O)N[C@H]1C(=O)N[C@@H](CC(N)=O)C(=O)N[C@H]2C(=O)N[C@H]3C(=O)N[C@H](C(=O)N[C@H](C(=O)O)c4cc(O)cc(O)c4-c4cc3ccc4O)[C@H](O)c3ccc(c(Cl)c3)Oc3cc2cc(c3O[C@@H]2O[C@H](CO)[C@@H](O)[C@H](O)[C@H]2O[C@H]2C[C@](C)(N)[C@H](O)[C@H](C)O2)Oc2ccc(cc2Cl)[C@H]1O [vancomycin]
MIC ([1]; read-out: MIC values, MRSA strain 3666): 1.56 µg/mL (≈ 1.08 µM) | MIC ([1]; read-out: MIC values, MRSA strain 3667): 3.13 µg/mL (≈ 2.16 µM) | MIC ([1]; read-out: MIC values, MRSA strain 3668): 1.56 µg/mL (≈ 1.08 µM) | MIC ([1]; read-out: MIC values, MRSA strain 3669): 0.78 µg/mL (≈ 0.538 µM) | MIC ([1]; read-out: MIC values, MRSA strain 3670): 0.78 µg/mL (≈ 0.538 µM) | MIC ([1]; read-out: MIC values, MRSA strain 3671): 0.78 µg/mL (≈ 0.538 µM) | MIC ([1]; read-out: MIC values, MRSA strain S-1): 6.25 µg/mL (≈ 4.31 µM) | MIC ([1]; read-out: MIC values, MRSA strain S-2): 3.13 µg/mL (≈ 2.16 µM) | MIC ([1]; read-out: MIC values, MRSA strain S-3): 1.56 µg/mL (≈ 1.08 µM) | MIC ([1]; read-out: MIC values, MRSA strain S-4): 1.56 µg/mL (≈ 1.08 µM) | MIC ([1]; read-out: MIC values, MRSA strain S-5): 1.56 µg/mL (≈ 1.08 µM)

CC[C@H]1OC(=O)[C@H](C)[C@@H](O[C@H]2C[C@@](C)(OC)[C@@H](O)[C@H](C)O2)[C@H](C)[C@@H](O[C@@H]2O[C@H](C)C[C@H](N(C)C)[C@H]2O)[C@](C)(O)C[C@@H](C)C(=O)[C@H](C)[C@@H](O)[C@]1(C)O [erythromycin]
MIC ([1]; MRSA strain 3666, read-out: MIC values): > 100 µg/mL | MIC ([1]; MRSA strain 3667, read-out: MIC values): > 100 µg/mL | MIC ([1]; MRSA strain 3668, read-out: MIC values): > 100 µg/mL | MIC ([1]; MRSA strain 3669, read-out: MIC values): > 100 µg/mL | MIC ([1]; MRSA strain 3670, read-out: MIC values): > 100 µg/mL | MIC ([1]; MRSA strain 3671, read-out: MIC values): > 100 µg/mL | MIC ([1]; MRSA strain S-1, read-out: MIC values): > 100 µg/mL | MIC ([1]; MRSA strain S-2, read-out: MIC values): 12.5 µg/mL (≈ 17 µM) | MIC ([1]; MRSA strain S-3, read-out: MIC values): > 100 µg/mL | MIC ([1]; MRSA strain S-4, read-out: MIC values): > 100 µg/mL | MIC ([1]; MRSA strain S-5, read-out: MIC values): > 100 µg/mL

CCCC1C=CC2C=C(C)C(OC3CC(NC)C(NC(=O)c4c(O)ccc(Cl)c4C)C(C)O3)CC=CC3C(CC)=CC4C(O)C(O)CC(C)C4C3(C)C(=O)C3=C(O)C2(C1)OC3=O (stereo not shown) [JK-1]
MIC values (MRSA): 0.05 µg/mL (≈ 0.057 µM) | MIC values (Asperigillus niger): >100 µg/mL | MIC values (Bacillus subtilis PCII89): 0.39 µg/mL (≈ 0.444 µM) | MIC values (Candida albicans): >100 µg/mL | MIC values (Corynebacterium xerosis): 0.025 µg/mL (≈ 0.0285 µM) | MIC values [3]: >100 µg/mL | MIC values (Gordonia bronchialis): 0.39 µg/mL (≈ 0.444 µM) | MIC values (Micrococcus luteus): 0.05 µg/mL (≈ 0.057 µM) | MIC values (Nocardia asteroides): 0.05 µg/mL (≈ 0.057 µM) | MIC values [4]: 0.05 µg/mL (≈ 0.057 µM) | activity relative to vancomycin ([1]; 11 strains of clinically freshly isolated MRSAs): about 6 times | MIC values ([1]; MRSA strain 3666): 0.2 µg/mL (≈ 0.228 µM) | MIC values ([1]; MRSA strain 3667): 0.2 µg/mL (≈ 0.228 µM) | MIC values ([1]; MRSA strain 3668): 0.2 µg/mL (≈ 0.228 µM) | MIC values ([1]; MRSA strain 3669): 0.2 µg/mL (≈ 0.228 µM) | MIC values ([1]; MRSA strain 3670): 1.56 µg/mL (≈ 1.78 µM) | MIC values ([1]; MRSA strain 3671): 0.1 µg/mL (≈ 0.114 µM) | MIC values ([1]; MRSA strain S-1): 0.78 µg/mL (≈ 0.889 µM) | MIC values ([1]; MRSA strain S-2): 0.39 µg/mL (≈ 0.444 µM) | MIC values ([1]; MRSA strain S-3): 0.39 µg/mL (≈ 0.444 µM) | MIC values ([1]; MRSA strain S-4): 0.2 µg/mL (≈ 0.228 µM) | MIC values ([1]; MRSA strain S-5): 0.2 µg/mL (≈ 0.228 µM) | MIC values against gram-positive bacteria (gram-positive bacteria): 0.025 to 0.39 µg/mL | antimicrobial activity against gram-negative bacteria and fungi [5]: No antimicrobial activity

NC[C@H]1O[C@H](O[C@H]2[C@H](O)[C@@H](O[C@H]3O[C@H](CO)[C@@H](O)[C@H](N)[C@H]3O)[C@H](N)C[C@@H]2N)[C@H](N)C[C@@H]1O [Tobramycin]
Sensitivity against Antibiotics [2]: positive
